Results reported in ChEMBL document CHEMBL4007499, “Anti-influenza triterpenoid saponins (saikosaponins) from the roots of Bupleurum marginatum var. stenophyllum” (Bioorg Med Chem Lett, 2017).

Key:
[1] = Cytotoxicity against human 293T cells expressing Gluc assessed as inhibition of cell proliferation at 20 uM after 24 hrs by CCK8 assay relative to control; assay type: cell-based; conditions: 293T (HEK-293T) cells expressing Gluc
[2] = Cytotoxicity against human 293T cells expressing Gluc assessed as inhibition of cell proliferation after 24 hrs by CCK8 assay; assay type: cell-based; conditions: 293T (HEK-293T) cells expressing Gluc
in vitro = conditions: human, 293T cells expressing Gluc
Description: Selectivity index, ratio of CC50 for human 293T cells expressing Gluc to EC50 for Influenza A virus WSN/33(H1N1)

cells = conditions: Influenza A virus, HEK-293T
Description: Antiviral activity against Influenza virus A/WSN/33(H1N1) infected in human 293T cells assessed as inhibition of viral replication preincubated for 2 hrs followed by viral infection measured after 24 hrs by luciferase reporter gene assay

With `C[C@H]1O[C@@H](O[C@H]2CC[C@@]3(C)[C@@H](CC[C@]4(C)[C@@H]3C=CC3=C5CC(C)(C)CC[C@]5(CO)C(=O)C[C@]34C)[C@]2(C)CO)[C@H](O)[C@@H](O[C@@H]2O[C@H](CO)[C@@H](O)[C@H](O)[C@H]2O)[C@H]1O` the inhibition at 24 h, 20 µM [1] was 9%.

With `C[C@H]1O[C@@H](O[C@H]2CC[C@]3(C)[C@H]4C=C[C@]56OC[C@@]7(CCC(C)(C)C[C@H]75)[C@@H](O)C[C@@]6(C)[C@]4(C)CC[C@H]3C2(C)C)[C@H](O)[C@@H](O[C@@H]2O[C@H](CO)[C@@H](O)[C@H](O)[C@H]2O)[C@H]1O` the CC50 at 24 h [2] was 2.85 µM, the selectivity ratio (in vitro) was 1.33 and the EC50 (cells) was 2.14 µM. The inhibition at 24 h, 20 µM [1] was 44.8%.

In the case of `C[C@H]1O[C@@H](O[C@H]2CC[C@@]3(C)[C@@H](CC[C@]4(C)[C@@H]3C=CC3=C5CC(C)(C)CC[C@]5(CO)[C@@H](O)C[C@]34C)[C@]2(C)CO)[C@H](O)[C@@H](O)[C@H]1O`, the CC50 at 24 h [2] is reported as 24.5 µM, the selectivity ratio (in vitro) is reported as 2.89 and the EC50 (cells) is reported as 8.48 µM. For the same compound, the inhibition at 24 h, 20 µM [1] was 0%.

In the case of `C[C@H]1O[C@@H](O[C@H]2CC[C@@]3(C)[C@@H](CC[C@]4(C)[C@@H]3C=C[C@]35OC[C@@]6(CCC(C)(C)C[C@H]63)C(=O)C[C@]54C)[C@]2(C)CO)[C@H](O)[C@@H](O[C@@H]2O[C@H](CO)[C@@H](O)[C@H](O)[C@H]2O)[C@H]1O`, the CC50 at 24 h [2] is reported as 3.8 µM, the selectivity ratio (in vitro) is reported as 1.43 and the EC50 (cells) is reported as 2.66 µM. For the same compound, the inhibition at 24 h, 20 µM [1] was 49.7%.

With `CO[C@@H]1C=C2[C@@H]3CC(C)(C)CC[C@]3(CO)[C@@H](O)C[C@@]2(C)[C@]2(C)CC[C@H]3C(C)(C)[C@@H](O[C@@H]4O[C@H](CO[C@@H]5O[C@H](CO)[C@@H](O)[C@H](O)[C@H]5O)[C@@H](O[C@@H]5O[C@@H](C)[C@H](O)[C@@H](O)[C@H]5O)[C@H](O)[C@H]4O)CC[C@]3(C)[C@@H]12` the inhibition at 24 h, 20 µM [1] was 0%.

With `C[C@@H]1O[C@@H](O[C@H]2[C@H](O)[C@@H](O)[C@H](O[C@H]3CC[C@@]4(C)[C@@H](CC[C@]5(C)[C@@H]4C=CC4=C6CC(C)(C)CC[C@]6(CO)[C@@H](O)[C@H](O)[C@]45C)[C@]3(C)CO)O[C@@H]2CO[C@@H]2O[C@H](CO)[C@@H](O)[C@H](O)[C@H]2O)[C@H](O)[C@H](O)[C@H]1O` the CC50 at 24 h [2] was > 200 µM, the selectivity ratio (in vitro) was > 26.1 and the EC50 (cells) was 7.67 µM. It also gave an inhibition at 24 h, 20 µM [1] of 0%.

`C[C@H]1O[C@@H](O[C@H]2CC[C@@]3(C)[C@@H](CC[C@]4(C)[C@@H]3C=CC3=C5CC(C)(C)CC[C@]5(CO)C(=O)[C@H](O)[C@]34C)[C@]2(C)CO)[C@H](O)[C@@H](O[C@@H]2O[C@H](CO)[C@@H](O)[C@H](O)[C@H]2O)[C@H]1O` showed an inhibition at 24 h, 20 µM [1] of 0%.

With `C[C@@H]1O[C@@H](O[C@H]2[C@H](O)[C@@H](O)[C@H](O[C@H]3CC[C@]4(C)[C@H]5C=CC6=C7CC(C)(C)CC[C@]7(CO)[C@@H](O)[C@H](O)[C@@]6(C)[C@]5(C)CC[C@H]4C3(C)C)O[C@@H]2CO[C@@H]2O[C@H](CO)[C@@H](O)[C@H](O)[C@H]2O)[C@H](O)[C@H](O)[C@H]1O` the CC50 at 24 h [2] was > 200 µM, the selectivity ratio (in vitro) was > 19.8 and the EC50 (cells) was 10.1 µM. It also gave an inhibition at 24 h, 20 µM [1] of 5.14%.

Compound `C/C=C/C(=O)OC[C@H]1O[C@@H](O[C@H]2[C@@H](O)[C@@H](C)O[C@@H](O[C@H]3CC[C@@]4(C)[C@@H](CC[C@]5(C)[C@@H]4C=C[C@]46OC[C@@]7(CCC(C)(C)C[C@H]74)[C@@H](O)C[C@]65C)[C@]3(C)CO)[C@@H]2O)[C@H](O)[C@@H](O)[C@@H]1O` has a CC50 at 24 h [2] of 7.02 µM, a selectivity ratio (in vitro) of 0.79 and an EC50 (cells) of 8.92 µM. It also gave an inhibition at 24 h, 20 µM [1] of 44.2%.

For `C[C@H]1O[C@@H](O[C@H]2CC[C@@]3(C)[C@@H](CC[C@]4(C)[C@@H]3C=CC3=C5C[C@@](C)(CO)CC[C@]5(CO)[C@@H](O)C[C@]34C)[C@]2(C)CO)[C@H](O)[C@@H](O[C@@H]2O[C@H](CO)[C@@H](O)[C@H](O)[C@H]2O)[C@H]1O`, the inhibition at 24 h, 20 µM [1] was 5.87%.

`C[C@H]1O[C@@H](O[C@H]2CC[C@]3(C)C4=CC=C5[C@@H]6CC(C)(C)CC[C@]6(CO)[C@H](O)C[C@@]5(C)[C@]4(C)CC[C@H]3[C@]2(C)CO)[C@H](O)[C@@H](O[C@@H]2O[C@H](CO)[C@@H](O)[C@H](O)[C@H]2O)[C@H]1O` gave a CC50 at 24 h [2] of 38.2 µM, a selectivity ratio (in vitro) of 1.75 and an EC50 (cells) of 21.8 µM. It also gave an inhibition at 24 h, 20 µM [1] of 1.39%.

For `C[C@@H]1O[C@@H](O[C@H]2[C@H](O)[C@@H](O)[C@H](O[C@H]3CC[C@@]4(C)[C@@H](CC[C@]5(C)[C@@H]4CC=C4[C@@H]6CC(C)(C)CC[C@]6(CO)[C@@H](O)C[C@]45C)[C@]3(C)CO)O[C@@H]2CO[C@@H]2O[C@H](CO)[C@@H](O)[C@H](O)[C@H]2O)[C@H](O)[C@H](O)[C@H]1O`, the CC50 at 24 h [2] was > 200 µM, the selectivity ratio (in vitro) was > 11.2 and the EC50 (cells) was 17.9 µM. It also gave an inhibition at 24 h, 20 µM [1] of 0%.

With `C[C@H]1O[C@@H](O[C@H]2CC[C@]3(C)C4=CC=C5[C@@H]6CC(C)(C)CC[C@]6(CO)[C@@H](O)C[C@@]5(C)[C@]4(C)CC[C@H]3[C@]2(C)CO)[C@H](O)[C@@H](O[C@@H]2O[C@H](CO)[C@@H](O)[C@H](O)[C@H]2O)[C@H]1O` the CC50 at 24 h [2] was 18.9 µM, the selectivity ratio (in vitro) was 1.19 and the EC50 (cells) was 15.8 µM. The inhibition at 24 h, 20 µM [1] was 1.39%.

In the case of `CO[C@@H]1C=C2[C@@H]3CC(C)(C)CCC3=C(O)C(=O)[C@@]2(C)[C@]2(C)CC[C@H]3[C@](C)(CO)[C@@H](O[C@@H]4O[C@H](C)[C@H](O)[C@H](O[C@@H]5O[C@H](CO)[C@@H](O)[C@H](O)[C@H]5O)[C@H]4O)CC[C@]3(C)[C@@H]12`, the inhibition at 24 h, 20 µM [1] is reported as 0%.

In the case of `NC(=O)c1ncn([C@@H]2O[C@H](CO)[C@@H](O)[C@H]2O)n1` [RIBAVIRIN], the CC50 at 24 h [2] is reported as > 205 µM, the selectivity ratio (in vitro) is reported as > 11.4 and the EC50 (cells) is reported as 17.9 µM. It also gave an inhibition at 24 h, 20 µM [1] of 0%.
